This is an account of results in a melting point compilation (Tetko et al.).

Each structure is given as a SMILES string.

Consider `CCc1c(O)nc(S)n(-c2cccc(OC)c2)c1=O`, for which the melting point (in general, the temperature, or range, at which the solid turns liquid) lay within 141 to 143 °C.

`COc1ccc2cc[nH]c(=O)c2c1` showed a melting point of 201 to 203 °C.

Compound `O=C(O)C1CC1C(=O)O` (configuration not stated) gave a melting point of 177 to 179 °C.

The compound `CCCc1noc2ncc(C(=O)O)cc12` showed a melting point of 174 to 176 °C.

`CCC(=O)c1ccc(Oc2ccccc2)cc1` returned a melting point of 39 to 41 °C.

With `CCOC(=O)c1cc(-c2ccccc2)ccc1N`, the melting point is 59 to 61 °C.

The compound `Nc1ccc2[nH]c(-c3ccco3)nc2c1` had a melting point of 230 to 232 °C.

`CCOc1cccc(F)c1[N+](=O)[O-]` registered a melting point of 34 to 36 °C.

In turn, `O=C(O)c1ccc(NC(=O)c2ccco2)cc1` yielded a melting point of 132 to 134 °C.

Regarding `Cc1ccc(C2CC2C(=O)O)s1` (configuration not stated), the melting point is 45 to 47 °C.

In the case of `CSCc1cccc(C(=O)O)c1`, the melting point lay in the range of 78 to 80 °C.

In turn, `Cc1c(C(=O)O)sc2nc(CCl)[nH]c(=O)c12` came in with a melting point of 322 to 324 °C.

Take `Cc1cc(C(=O)O)ccc1NS(=O)(=O)C(F)(F)F`: the melting point lay in the range of 203 to 205 °C.

Compound `O=S(=O)(Cl)Cc1noc2ccccc12` had a melting point of 96 to 98 °C.

Take `COc1ccc(N)c2cccnc12`: the melting point lay in the range of 155 to 157 °C.

The compound `NS(=O)(=O)c1cccc(O)c1` showed a melting point of 159 to 161 °C.

Compound `COc1ccc(N)cc1C` had a melting point of 31 to 33 °C.

Compound `CCSc1cc(Br)ccc1C=O` gave a melting point of 50 to 52 °C.

For `Nc1ccc2c[nH]nc2c1`, the melting point lay within 204 to 206 °C.

On to `Cc1nc(-c2cccnc2)[nH]c(=O)c1CC(=O)O`, for which the melting point fell in the range of 263 to 265 °C.

`Cc1ccc(S(=O)(=O)N2Cc3ccccc3CC2C(=O)O)cc1` (configuration not stated): the melting point was 143 to 145 °C.

In turn, `Cc1cc(Br)cc2ccc(=O)[nH]c12` gave a melting point of 278 to 280 °C.

The compound `CC(C)(C#N)N1CCN(C(C)(C)C#N)CC1` gave a melting point of 182 to 184 °C.

Compound `O=C(O)c1cc2ccc(OC(F)(F)F)cc2[nH]1` registered a melting point of 160 to 162 °C.

For `CC(C)NC(=O)c1ccc(Cl)cc1N`, the melting point was 158 to 160 °C.

Take `O=c1cc(CO)occ1OCc1ccccc1`: the melting point is 96 to 98 °C.

Regarding `O=C(CCl)NC(=O)NCc1ccco1`, the melting point is 128 to 130 °C.

Regarding `Cc1nc2ccnn2c(C)c1C(=O)O`, the melting point was in the range of 194 to 196 °C.

In turn, `NS(=O)(=O)c1c[nH]cn1` registered a melting point of 232 to 234 °C.

The compound `NC(=S)Cc1cccc(Cl)c1` returned a melting point of 105 to 107 °C.

Compound `COC(=O)c1ccc(NC(=O)CCCCl)cc1` yielded a melting point of 128 to 130 °C.

Compound `O=C(O)c1cc(F)c(F)cc1Br` registered a melting point of 118 to 122 °C.

In turn, `Cc1nn(-c2ccc(F)cc2)c2[nH]nc(N)c12` had a melting point of 168 to 170 °C.

In the case of `CC(C)(C)NC(=O)Cc1ccc(N)cc1`, the melting point lay in the range of 113 to 115 °C.

`O=C(NC(CO)C(=O)O)c1ccccc1` (configuration not stated) gave a melting point of 159 to 161 °C.

`CS(=O)(=O)N1CCC(NC(=O)N2CCC(C(=O)O)CC2)CC1` displayed a melting point of 197 to 199 °C.

Compound `CCC(=O)c1ccc(C(=O)O)cc1` gave a melting point of 178 to 180 °C.

On to `CCc1c(C)nn(-c2cccc(C(=O)O)c2)c1C`, for which the melting point was 149 to 151 °C.

`CS(=O)(=O)Nc1cccc(C(=O)O)c1`: the melting point lay in the range of 230 to 232 °C.

In turn, `O=C(O)c1cc(NCc2ccccc2)nc2ccccc12` registered a melting point of 339 to 341 °C.

Take `N#Cc1ccc(CNc2ccc3[nH]c(=O)[nH]c3c2)cc1`: the melting point lay in the range of 276 to 278 °C.

In the case of `NC(=S)c1ncccn1`, the melting point was in the range of 197 to 199 °C.

In the case of `O=Cc1cnc(N2CCOCC2)s1`, the melting point was in the range of 163 to 165 °C.

The compound `NS(=O)(=O)c1ccc2c(c1)CCCC2` registered a melting point of 135 to 137 °C.

Consider `CC(N)(C(=O)O)c1ccccc1` (configuration not stated), for which the melting point fell in the range of 169 to 171 °C.

Take `Cc1ccc(SC2(C(=O)O)CCCC2)cc1`: the melting point is 80 to 82 °C.

The compound `Cc1cc(C)nc(-n2nc(N)cc2C)n1` gave a melting point of 134 to 136 °C.

`Cc1cccc(C(N)CC(=O)O)c1C` (configuration not stated) registered a melting point of 211 to 213 °C.

For `COc1cc(OC)c2c(Cl)ccnc2c1`, the melting point lay within 92 to 94 °C.

For `COc1cccc(SCC(=O)O)c1`, the melting point was in the range of 60 to 62 °C.

As for `CCOC(=O)c1nc(Br)sc1NC`, the melting point lay within 75 to 77 °C.

In turn, `O=C(O)c1cccc(S(=O)(=O)Nc2ccccc2Cl)c1` came in with a melting point of 186 to 188 °C.

On to `CCCC(C)S(N)(=O)=O` (configuration not stated), for which the melting point lay within 48 to 50 °C.

`CS(=O)(=O)c1cccc(OCC(=O)O)c1` had a melting point of 110 to 112 °C.

Compound `Nc1nc(-c2ccc(Oc3ccccc3)cc2)cs1` displayed a melting point of 195 to 197 °C.

With `Cc1cc(Br)ncc1[N+](=O)[O-]`, the melting point was 64 to 66 °C.

In turn, `COc1cc(C)nc(C=O)c1` displayed a melting point of 57 to 59 °C.

With `O=C(O)Cn1nc(-c2ccccc2)oc1=O`, the melting point lay within 196 to 198 °C.

Compound `CS(=O)(=O)c1ccc(OCC(=O)O)cc1` yielded a melting point of 172 to 174 °C.

In turn, `Cc1ccc(Cl)c(NC(=O)C(C)Cl)c1Cl` (configuration not stated) came in with a melting point of 149 to 151 °C.

Regarding `O=C(O)C1(O)CCN(Cc2ccccc2)C1` (configuration not stated), the melting point lay within 173 to 175 °C.

In the case of `O=C(O)c1cccc(N2CCCC2=O)c1`, the melting point was 195 to 208 °C.

With `COc1ccccc1C1(C(=O)O)CC1`, the melting point lay in the range of 131 to 133 °C.

Regarding `CNC(=O)c1ccc(C=O)cc1`, the melting point lay within 152 to 154 °C.

Take `O=[N+]([O-])c1ccc(Br)cc1F`: the melting point fell in the range of 86 to 88 °C.

As to `CN1CCC(NCCO)CC1`, the melting point lay in the range of 37 to 39 °C.

Consider `O=C(O)c1cc(F)c(F)cc1C(=O)O`, for which the melting point lay within 158 to 160 °C.

Compound `CC(C)COC(=O)N1CCC(C(=O)O)CC1` came in with a melting point of 69 to 71 °C.

`CNS(=O)(=O)c1ccc(-c2ccc(Cl)c(Cl)c2)c(C(=O)O)c1` displayed a melting point of 193 to 195 °C.

Compound `CC(C)(C)OC(=O)NCc1nnn[nH]1` gave a melting point of 153 to 155 °C.

In turn, `NCCCCc1cn[nH]c1` came in with a melting point of 72 to 74 °C.

Compound `CC(C)(CCC(=O)O)NC(=O)OC(C)(C)C` returned a melting point of 91 to 93 °C.

In turn, `NCC1(O)CCSCC1` had a melting point of 65 to 67 °C.

`c1cnc(N2CCN(c3ncccn3)CC2)nc1` registered a melting point of 144 to 146 °C.

`Cc1c(CCC(=O)O)c(=O)[nH]c2c1c(=O)[nH]n2C` displayed a melting point of 304 to 306 °C.

With `c1cc2n(n1)CCCN2`, the melting point is 99 to 101 °C.

The compound `O=Cc1sc(N2CCCCC2)nc1Cl` gave a melting point of 89 to 91 °C.

`CCNc1nnc(S)s1`: the melting point was 141 to 143 °C.

`Cc1c(N)cccc1-n1cnnn1` returned a melting point of 124 to 126 °C.

Regarding `NC(Cc1ccccn1)=NO`, the melting point was 105 to 107 °C.

On to `Cc1noc(N)n1`, for which the melting point lay in the range of 161 to 163 °C.

As for `Nc1nc(-c2cccc(Cl)c2)cs1`, the melting point is 125 to 127 °C.

The compound `Cc1ccccc1C(=O)NCCC(=O)O` showed a melting point of 110 to 112 °C.

`CC(C)=CCSCC(N)C(=O)O` (configuration not stated) came in with a melting point of 189 to 191 °C.

`BrCCOc1ccc(Oc2ccccc2)cc1` registered a melting point of 35 to 37 °C.

In turn, `COc1ccc(-c2nn(-c3ccccc3)cc2C=CC(=O)O)cc1OC` displayed a melting point of 162 to 164 °C.

In the case of `OC(c1ccccc1)c1nccs1` (configuration not stated), the melting point was 99 to 101 °C.

`O=C(O)C1(N2CCOCC2)CCC1` returned a melting point of 209 to 211 °C.

For the compound `Cc1cc(S(=O)(=O)Cl)c(C)cc1Br`, the melting point was in the range of 54 to 56 °C.

`Cc1ccc(S(=O)(=O)OCC2CCN(C(=O)OC(C)(C)C)CC2)cc1` came in with a melting point of 72 to 74 °C.

As to `Cc1cc(C(=O)O)c(C)n1C(C)c1ccccc1` (configuration not stated), the melting point lay in the range of 135 to 137 °C.

The compound `CCCCn1c(CCC(=O)O)nc2cc(S(=O)(=O)N3CCOCC3)ccc21` returned a melting point of 136 to 138 °C.

Compound `N#CCC(=O)c1cc(Cl)cc(Cl)c1` yielded a melting point of 139 to 141 °C.

In the case of `O=C(O)c1ccccc1C(=O)c1ccc(Cl)c(Cl)c1`, the melting point lay within 187 to 189 °C.

Take `O=C(O)c1cccc(S(=O)(=O)Nc2ccc(Cl)cc2)c1`: the melting point lay in the range of 250 to 252 °C.

The compound `CC(=O)N(C)CCCC(=O)O` showed a melting point of 98 to 100 °C.

`O=C(O)c1cn(-c2cccc(Cl)c2F)nn1` yielded a melting point of 139 to 141 °C.

As to `CC(C)(C)OC(=O)NCC1CCCCN1` (configuration not stated), the melting point was in the range of 93 to 95 °C.

The compound `CCOc1ccc(Br)cc1S(=O)(=O)Cl` registered a melting point of 109 to 111 °C.

`O=c1[nH]c(CNCc2ccccc2)nc2ccccc12` returned a melting point of 139 to 141 °C.

`CC(C)CNC(=O)NC(=O)C(C)Cl` (configuration not stated) came in with a melting point of 85 to 87 °C.

`COc1ccccc1N(C)S(=O)(=O)c1ccc(Cl)c(C(=O)O)c1` showed a melting point of 179 to 181 °C.

Compound `NC(=O)NC(CCC(=O)O)C(=O)O` (configuration not stated) yielded a melting point of 161 to 163 °C.

Compound `CCn1cc(S(=O)(=O)Cl)c([N+](=O)[O-])n1` came in with a melting point of 45 to 47 °C.

Regarding `CN(CC(=O)O)c1ccc(C(F)(F)F)cc1C=O`, the melting point lay in the range of 106 to 108 °C.

For `CC(C)(C)OC(=O)Nc1ccsc1Br`, the melting point fell in the range of 69 to 71 °C.

As to `Cn1ccnc(NN)c1=O`, the melting point lay within 131 to 133 °C.

In the case of `O=C(O)C(=O)c1ccc2c(c1)CCCC2`, the melting point was 70 to 72 °C.

The compound `Nc1c(C(=O)O)cc(F)cc1[N+](=O)[O-]` displayed a melting point of 219 to 221 °C.

As to `Nc1cccc(OCCc2ccccc2)c1`, the melting point lay in the range of 139 to 141 °C.

As to `CCNS(=O)(=O)c1ccc2c(c1)NCC2`, the melting point lay within 112 to 114 °C.

`NC(=O)c1c[nH]nc1-c1ccccc1` showed a melting point of 187 to 189 °C.

On to `CCCC(=O)Nc1cccc(N)c1C`, for which the melting point lay within 106 to 108 °C.

As for `Cc1cc(=O)n2nc(N)sc2n1`, the melting point was 335 to 337 °C.

In turn, `O=Cc1cccc(Br)c1O` had a melting point of 51 to 55 °C.

`NS(=O)(=O)c1cc([N+](=O)[O-])cs1` returned a melting point of 165 to 167 °C.

Turning to `c1ccc(COc2cccc3cn[nH]c23)cc1`, the melting point was in the range of 126 to 128 °C.

Compound `Cc1csc(NC(=O)CSCC(N)C(=O)O)n1` (configuration not stated) came in with a melting point of 169 to 171 °C.

Consider `COc1ccc2ccc(-c3nn(-c4ccccc4)cc3C(=O)O)cc2c1`, for which the melting point is 254 to 256 °C.

The compound `COC(=O)CCCCCNC(N)=S` showed a melting point of 84 to 86 °C.

The compound `CCCN1C(=O)NC(=O)C1=O` showed a melting point of 105 to 107 °C.

`Cc1cc(C)cc(-n2nc(C)cc2N)c1` returned a melting point of 95 to 97 °C.
